# Results published in US9802899B2, “Heterocyclic compounds as pesticides” (BAYER CROPSCIENCE AG, priority 2012, dated 2017).
# Assay: Determination of the log P values by HPLC (formic acid method)
# Assay type: physicochemical
# Settings: reversed-phase column (C 18), acidic range (pH 3.4), 55° C.
# Procedure: 1) Description of Method for Determination of the Log P Values (Formic Acid Method)
# Eluents for determination in the acidic range (pH 3.4):
# Eluent A: acetonitrile+1 ml of formic acid/liter. Eluent B: water+0.9 ml of formic acid/liter.
# The lambda max values were determined in the maxima of the chromatographic signals using the UV spectra from 200 nm to 400 nm.
# [1] = reversed-phase HPLC column (C 18)
log P,SMILES,also measured
2.16,O=C(Nc1ccn(-c2ncc(F)cc2F)n1)c1ncccc1Cl [Compound I-1-504],
2.60,O=C(Nc1cnn(-c2c(F)cccc2F)n1)c1nccnc1C(F)(F)F [Compound I-2-79],
2.61,N#Cc1c(F)cccc1-n1ccc(NC(=O)c2ccccc2Br)n1 [Compound I-1-620],
2.50,Cn1nc([N+](=O)[O-])c(Cl)c1C(=O)Nc1ccn(-c2ncc(F)cc2F)n1 [Compound I-1-530],
2.57,O=C(Nc1nn(-c2ncccc2Cl)nc1Cl)c1ccccc1I [Compound I-2-60],
2.64,O=C(Nc1ccn(-c2cccc(Cl)c2F)n1)c1cccnc1Br [Compound I-1-558],
3.09,O=C(Nc1nn(-c2ncc(F)cc2F)c2ccccc12)c1ccccc1Br [Compound I-5-3],
1.29,Cn1cnnc1C(=O)Nc1ccn(-c2ncc(F)cc2F)n1 [Compound I-1-544],
3.30,O=C(Nc1ccn(-c2cccc(Cl)c2F)n1)c1ccccc1Cl [Compound I-1-559],
2.86,O=C(Nc1ccn(-c2c(F)cccc2F)n1)c1c(Cl)cccc1C(F)(F)F [Compound I-1-614],
2.21,Cc1ccccc1C(=O)NC1=NN(c2c(F)cccc2F)CC1 [Compound I-4-5],
2.39,N#Cc1cc(F)ccc1-n1ccc(NC(=O)c2c(F)cccc2F)n1 [Compound I-1-628],
2.33,Cc1nn(-c2ncccc2Cl)nc1NC(=O)c1ccccc1C(F)(F)F [Compound I-2-53],
1.79,O=C(Nc1ccn(-c2ncc(F)cc2F)n1)c1cccnc1I [Compound I-1-495],
2.46,O=C(Nc1cnn(-c2ncccc2Br)n1)c1ccccc1C(F)(F)F [Compound I-2-17],
2.60,O=C(Nc1nn(-c2ncccc2Cl)nc1Cl)c1ccccc1C(F)(F)F [Compound I-2-11],
2.00,Cc1cnoc1C(=O)Nc1ccn(-c2ncc(F)cc2F)n1 [Compound I-1-543],
1.89,O=C(Nc1ccn(-c2ncc(F)cc2F)n1)c1nccnc1Cl [Compound I-1-485],
2.38,O=C(Nc1ccn(-c2ncc(F)cc2F)n1)c1c(F)cccc1Cl [Compound I-1-484],
3.03,O=C(Nc1cnn(-c2ccccc2Cl)n1)c1ccccc1I [Compound I-2-3],
2.04,O=C(Nc1cnn(-c2ncccc2F)n1)c1ccccc1Br [Compound I-2-46],
1.66,O=C(Nc1cnn(-c2ncccc2Cl)n1)c1cccnc1Cl [Compound I-2-56],
2.26,O=C(Nc1cnn(-c2ncccc2Cl)n1)c1ccccc1Br [Compound I-2-13],
3.21,O=C(Nc1nn(-c2ccccc2Cl)nc1Cl)c1ccccc1C(F)(F)F [Compound I-2-19],
2.96,O=C(Nc1ccn(-c2c(F)cccc2F)c1)c1occc1I [Compound I-3-6],
3.12,O=C(Nc1ccn(-c2cccc(Cl)c2F)n1)c1c(F)cccc1F [Compound I-1-556],
2.22,Cc1nonc1C(=O)Nc1ccn(-c2ncc(F)cc2F)n1 [Compound I-1-542],
3.04,O=C(Nc1cnn(-c2ncc(Cl)cc2Cl)n1)c1ccccc1I [Compound I-2-65],
1.91,N#Cc1cc(F)ccc1-n1ccc(NC(=O)c2cccnc2Cl)n1 [Compound I-1-631],

# The remaining lines, values behind:
SMILES,log P,also measured
O=C(Nc1ccn(-c2nccnc2F)n1)c1ccccc1Br [Compound I-1-175],2.09,
Cn1ncnc1C(=O)Nc1ccn(-c2c(F)cccc2F)n1 [Compound I-1-236],1.93,
O=C(c1cccc(Cl)c1Cl)N(C(=O)c1cccc(Cl)c1Cl)c1ccn(-c2ncc(F)cc2F)n1 [Compound I-1-477],4.47,
"Nc1ccn(-c2c(Cl)cccc2Cl)n1 [1-(2,6-Dichlorophenyl)-1H-pyrazole-3-amine]",,chromatographic logP [1]: 1.47
O=C(Nc1ccn(-c2ncc(F)cc2F)n1)c1cccnc1CC(F)(F)F [Compound I-1-457],2.13,
O=C(Nc1ccn(-c2c(F)cccc2F)n1)c1ccsc1I [Compound I-1-105],2.76,
O=C(Nc1ccn(-c2ncc(F)cc2F)n1)c1ccccc1-n1cncn1 [Compound I-1-150],1.47,
CS(=O)(=O)c1ccccc1-n1ccc(NC(=O)c2ccccc2I)n1 [Compound I-1-184],2.10,
"Nc1cnn(-c2ccc(C(F)(F)F)cn2)n1 [2-[5-(Trifluoromethyl)pyridin-2-yl]-2H-1,2,3-triazole-4-amine]",,chromatographic logP [1]: 1.53
COc1ccccc1-n1ccc(NC(=O)c2ccccc2Cl)n1 [Compound I-1-410],2.70,
O=C(Nc1ccn(-c2cccc(F)c2F)n1)c1ccccc1I [Compound I-1-67],3.10,
O=C(c1ccccc1Cl)N(CC1CC1)c1ccn(-c2ccccc2Cl)n1 [Compound I-1-24],3.85,
O=C(Nc1ccn(-c2cnc(Cl)cn2)n1)c1ccccc1I [Compound I-1-390],2.96,
O=C(Nc1ccn(-c2cc(F)c(F)cc2F)n1)c1ccccc1C(F)(F)F [Compound I-1-193],3.73,
O=C(Nc1ccn(-c2nc(F)c(F)cc2F)n1)c1ccccc1Cl [Compound I-1-163],2.64,
O=C(Nc1ccn(-c2ncc(F)cc2F)n1)c1cccnc1C(F)(F)F [Compound I-1-151],2.02,
Cc1cn(-c2ccccc2Cl)nc1NC(=O)c1ccccc1Br [Compound I-1-354],2.86,
"Nc1nn(-c2ncc(F)cc2F)c2ccc(F)cc12 [1-(3,5-Difluoropyridin-2-yl)-5-fluoro-1H-indazole-3-amine]",,chromatographic logP [1]: 2.09
O=C(Nc1nn(-c2c(F)cccc2F)cc1Br)c1ccccc1C(F)(F)F [Compound I-1-252],2.77,
O=C(Nc1ccn(-c2ncnc(F)c2F)n1)c1c(F)cccc1F [Compound I-1-171],2.29,
O=C(Nc1ccn(-c2ccccc2Cl)n1)c1cccc(Cl)c1Cl [Compound I-1-350],3.20,
O=C(Nc1ccn(-c2nccnc2F)n1)c1c(F)cccc1F [Compound I-1-177],1.94,
CCC(C)n1ncc(Cl)c1C(=O)Nc1ccn(-c2ncc(F)cc2F)n1 (stereo not shown) [Compound I-1-455],3.37,
O=C(Nc1ccn(-c2ccccc2[N+](=O)[O-])n1)c1ccccc1Cl [Compound I-1-125],2.46,
CC(=O)c1ccccc1C(=O)Nc1ccn(-c2c(F)cccc2F)n1 [Compound I-1-270],2.38,

SMILES,log P,also measured
Cc1cc(NC(=O)c2ccccc2Cl)nn1-c1ccccc1Cl [Compound I-1-31],2.45,
Cc1nc(-n2ccc(NC(=O)c3cccnc3C(F)(F)F)n2)c(F)cc1F [Compound I-1-440],2.38,
Nc1ccn(-c2nccc(I)c2F)n1 [1-(3-Fluoro-4-iodopyridin-2-yl)-1H-pyrazole-3-amine],,chromatographic logP [1]: 1.38
CS(=O)(=O)c1ccccc1-n1ccc(NC(=O)c2c(F)cccc2F)n1 [Compound I-1-181],1.86,
O=C(Nc1ccn(-c2c(F)cccc2F)n1)c1snnc1C1CC1 [Compound I-1-319],2.68,
"N#Cc1cc(F)cc(F)c1-n1ccc(NC(=O)c2ccccc2C(F)(F)F)n1 [Compound I-1-393, N-[1-(2-Cyano-4,6-difluorophenyl)-1H-pyrazol-3-yl]-2-(trifluoromethyl)benzamide]",,chromatographic logP [1]: 2.65
CCc1cccc(F)c1C(=O)Nc1ccn(-c2c(F)cccc2F)n1 [Compound I-1-274],2.85,
"N#Cc1ccc(Cl)nc1-n1ccc(NC(=O)c2ccccc2C(F)(F)F)n1 [Compound I-1-607, N-[1-(6-Chloro-3-cyanopyridin-2-yl)-1H-pyrazol-3-yl]-2-(trifluoromethyl)benzamide]",,chromatographic logP [1]: 3.14
O=C(Nc1ccn(-c2cc(F)c(F)cc2F)n1)c1ccccc1Br [Compound I-1-194],3.99,
CCOc1c(Cl)cccc1-n1ccc(NC(=O)c2cccnc2C(F)(F)F)n1 [Compound I-1-395],3.21,
O=C(Nc1ccn(-c2ncccc2F)n1)c1c(F)cccc1F [Compound I-1-132],1.99,
O=C(Nc1ccn(-c2ncc(F)cc2F)n1)c1cccnc1C(F)F [Compound I-1-460],1.77,
O=C(Nc1ccn(-c2ncccc2Cl)n1)c1ccccc1C(F)(F)F [Compound I-1-135],2.41,
O=C(Nc1ccn(-c2c(Cl)cccc2Cl)n1)c1cccnc1C(F)(F)F [Compound I-1-124],2.57,
O=C(Nc1cc[nH]n1)c1ccccc1C(F)(F)F [N-(1H-Pyrazol-3-yl)-2-(trifluoromethyl)benzamide],,chromatographic logP [1]: 1.33
O=C(Nc1ccn(-c2c(F)cccc2F)n1)c1ccccc1SC(F)(F)F [Compound I-1-88],3.15,
O=C(Nc1ccn(-c2nc(F)c(F)cc2F)n1)c1ccccc1C(F)(F)F [Compound I-1-162],2.78,
O=C(Nc1ccn(-c2ncccc2F)n1)c1ccccc1Br [Compound I-1-130],2.12,
O=C(Nc1nn(-c2c(F)cccc2F)cc1Cl)c1ccccc1C(F)(F)F [Compound I-1-251],2.73,
O=C(Nc1ccn(-c2nc(F)c(F)cc2F)n1)c1ncccc1C(F)(F)F [Compound I-1-167],3.88,
O=C(Nc1ccn(-c2ccccc2Cl)n1)c1ccccc1C(F)(F)F [Compound I-1-14],2.96,
"CC(=O)Nc1ccn(-c2c(F)cccc2F)n1 [N-[1-(2,6-Difluorophenyl)-1H-pyrazol-3-yl]acetamide]",,chromatographic logP: 1.33
CCc1cc(NC(=O)c2ccccc2I)nn1-c1ccc(F)cc1F [Compound I-1-215],4.15,
Cn1nc(C(C)(C)C)c([N+](=O)[O-])c1C(=O)Nc1ccn(-c2c(F)cccc2F)n1 [Compound I-1-292],3.33,
Cn1cc(Br)c(C(=O)Nc2ccn(-c3c(F)cccc3F)n2)n1 [Compound I-1-301],2.37,
